From patent publication US10294228B2, “Breathing control modulating compounds, and methods of making and using same” (NEURAD LTD., priority 2015, dated 2019)
Counter-ions that a name gives are not always drawn.

System: anesthetized rats
Test: Anesthetized rat spirometry screening assay (ventilatory activity, minute volume)
Type: in vivo
Conditions: increase in minute volume (VE); for change in vivo at 0.3 mg/kg: 0.3 mg/kg IV bolus, read-out: VE % Inc @ 0.3 mg/kg IV; for change in vivo at 3 mg/kg: 3.0 mg/kg IV bolus, read-out: VE % Inc @ 3.0 mg/kg IV
Method: Anesthetized rats provide a quick method of screening compounds for respiratory and cardiovascular activity.
Rats were initially anesthetized with 3% isoflurane (inhaled) and femoral artery and vein cannulas were surgically inserted. Once cannulated, the rats were transitioned to urethane anesthesia (1.5 g/kg; i.v.) and a tracheal cut-down was performed. After placing the tracheal cannula, it was connected to a pneumotachometer to record respiratory airflow from which respiratory rate (RR), tidal volume (VT), and their product minute volume (MV, also termed VE) were derived. After the surgical preparation was complete, animals were allowed to stabilize for 30 minutes while respiratory rate, tidal volume, minute volume, blood pressure and heart rate were recorded continuously. Arterial blood gases (ABG) were obtained from arterial blood collected from the femoral artery. ABG measurements were taken before and 6 minutes after vehicle and each dose of compound administered. Compounds being screened were administered via bolus injections through the venous cannula followed by a saline flush (total time of administration is approximately 30 seconds), and the animal was monitored for at least 6 minutes for changes in cardiovascular efforts. Compounds were prepared in formulations identified to ensure optimal solubility. As such, vehicle controls were matched for the formulation of each compound tested. Dosing of the compounds being screened was conducted at 0.1 and/or 0.3 mg/kg and/or 3 mg/kg The next dose was not administered until all cardiovascular and respiratory measures had returned to baseline levels. The positive control compounds used were N-[4,6-di-(n-propylamino)-[1,3,5]triazin-2-yl]-N,O-dimethyl-hydroxylamine or N-[2,6-di-(n-propylamino)-[1,3]pyrimidin-4-yl]-N,O-dimethyl-hydroxylamine (both administered at the end of each screening experiment (0.3 mg/kg dose) to validate the experiment and also to serve as a measure with which the compound being screened could be compared.
Data were analyzed by collecting cardiovascular and respiratory data in 30 second averages (BINs). Data were plotted 2 minutes before challenge and then 6 minutes after challenge.

| SMILES | change in vivo at 0.3 mg/kg | change in vivo at 3 mg/kg |
| --- | --- | --- |
| CNc1nc(NC[C@H](C)O)nc2c(NC)nc(NCC3CC3)nc12 [Compound 142, (S)-1-[6-(Cyclopropylmethyl-amino)-4,8-bis-methylamino-pyrimido[5,4-d]pyrimidin-2-ylamino]-propan-2-ol] | 2% | 62% |
| CCNc1nc(NC[C@H](C)O)nc2c(NCC)nc(N)nc12 [Compound 172, (S)-1-(6-Amino-4,8-bis-ethylamino-pyrimido[5,4-d]-pyrimidin-2-ylamino)-propan-2-ol] | 5% | 155% |
| CCCNc1nc(NC)c2nc(NCC(O)C(F)(F)F)nc(NC)c2n1 (stereo not shown) [Compound 111, 3-(4,8-Bis-methylamino-6-propylamino-pyrimido[5,4-d]pyrimidin-2-ylamino)-1,1,1-trifluoro-propan-2-ol] | 18% | 105% |
| CNc1nc(NCC(C)(C)O)c2nc(NC)nc(NC)c2n1 [Compound 48a, 2-Methyl-1-(2,6,8-tris-methylamino-pyrimido[5,4-d]-pyrimidin-4-ylamino)-propan-2-ol Hydrochloride] | 20% | 78% |
| CCCNc1nc(NCC(F)F)nc2c(NCC(C)(C)O)nc(NCC(F)F)nc12 [Compound 33a, 1-[2,6-Bis-(2,2-difluoro-ethylamino)-8-propylamino-pyrimido[5,4-d]-pyrimidin-4-ylamino]-2-methyl-propan-2-ol Hydrochloride] | 23% | 115% |
| CCCNc1nc(NC)nc2c(N[C@@H]3c4ccccc4C[C@@H]3O)nc(NC)nc12 [Compound 77, (1R,2S)-1-(2,6-Bis-methylamino-8-propylamino-pyrimido[5,4-d]-pyrimidin-4-ylamino)-indan-2-ol] | 135% | 170% |
| CCCNc1nc(NC)c2nc(N[C@@H]3CCCC[C@H]3O)nc(NC)c2n1 [Compound 137, (1R,2R)-2-(4,8-Bis-methylamino-6-propylamino-pyrimido[5,4-d]pyrimidin-2-ylamino)-cyclohexanol] | 22% | 103% |
| C=CCNc1nc(NC)c2nc(N(C)C[C@H](C)O)nc(NC)c2n1 [Compound 156, (S)-1-[(6-Allylamino-4,8-bis-methylamino-pyrimido[5,4-d]pyrimidin-2-yl)-methyl-amino]-propan-2-ol] | 16% | 97% |
| CCCNc1nc(NC)nc2c(N[C@@H]3CCCC[C@@H]3O)nc(NC)nc12 [Compound 84, (1S,2R)-2-(2,6-Bis-methylamino-8-propylamino-pyrimido[5,4-d]pyrimidin-4-ylamino)-cyclohexanol] | 169% | 184% |
| CNc1nc(NC[C@H](C)O)nc2c(NC)nc(N)nc12 [Compound 152, (S)-1-(6-Amino-4,8-bis-methylamino-pyrimido[5,4-d]-pyrimidin-2-ylamino)-propan-2-ol] | 7% | 89% |
| CCCNc1nc(NC)nc2c(N[C@@H]3c4ccccc4C[C@H]3O)nc(NC)nc12 [Compound 80, (1R,2R)-1-(2,6-Bis-methylamino-8-propylamino-pyrimido[5,4-d]-pyrimidin-4-ylamino)-indan-2-ol] | 71% | 95% |
| CCCNc1nc(NCC)nc2c(NCC(C)(C)O)nc(NCC)nc12 [Compound 32a, 1-(2,6-Bis-ethylamino-8-propylamino-pyrimido[5,4-d]-pyrimidin-4-ylamino)-2-methyl-propan-2-ol hydrochloride] | 201% |  |
| CCCNc1nc(NC)nc2c(NC(C)C(C)O)nc(NC)nc12 (stereo not shown) [Compound 26a, 3-(2,6-Bis-methylamino-8-propylamino-pyrimido[5,4-d]pyrimidin-4-ylamino)-butan-2-ol Hydrochloride] | 39% | 143% |
| CCCNc1nc(NC)nc2c(N(C)CC(C)O)nc(NC)nc12 (stereo not shown) [Compound 73a, 1-[(2,6-Bis-methylamino-8-propylamino-pyrimido[5,4-d]-pyrimidin-4-yl)-methyl-amino]-propan-2-ol Hydrochloride] | 16% | 79% |
| CCCNc1nc(NCC)c2nc(NC[C@H](C)O)nc(NCC)c2n1 [Compound 166, (S)-1-(4,8-Bis-ethylamino-6-propylamino-pyrimido[5,4-d]-pyrimidin-2-ylamino)-propan-2-ol] | 88% | 91% |
| CCCNc1nc(NC)nc2c(NC[C@@H](C)O)nc(NC)nc12 [Compound 14a, (R)-1-(2,6-Bis-methylamino-8-propylamino-pyrimido[5,4-d]pyrimidin-4-ylamino)-propan-2-ol Hydrochloride] | 88% |  |
| CCCNc1nc(NC)c2nc(N[C@H]3CCCC[C@@H]3O)nc(NC)c2n1 [Compound 133, (1S,2S)-2-(4,8-Bis-methylamino-6-propylamino-pyrimido[5,4-d]pyrimidin-2-ylamino)-cyclohexanol] | 35% | 111% |
| CCCNc1nc(NC)c2nc(NCC(C)O)nc(NC)c2n1 (stereo not shown) [Compound 95, 1-(4,8-Bis-methylamino-6-propylamino-pyrimido[5,4-d]-pyrimidin-2-ylamino)-propan-2-ol] | 138% |  |
| C=CCNc1nc(NC)c2nc(NC[C@@H](C)O)nc(NC)c2n1 [Compound 145, (R)-1-(6-Allylamino-4,8-bis-methylamino-pyrimido[5,4-d]pyrimidin-2-ylamino)-propan-2-ol] | 47% | 156% |
| CCCNc1nc(NC)nc2c(NCC(C)O)nc(NC)nc12 (stereo not shown) [Compound 10a, 1-(2,6-Bis-methylamino-8-propylamino-pyrimido[5,4-d]-pyrimidin-4-ylamino)-propan-2-ol hydrochloride] | 93% |  |
| CCCNc1nc(NC)nc2c(N3CCC(O)C3)nc(NC)nc12 (stereo not shown) [Compound 71a, 1-(2,6-Bis-methylamino-8-propylamino-pyrimido[5,4-d]pyrimidin-4-yl)-pyrrolidin-3-ol Hydrochloride] | 17% | 84% |
| CC[C@@H](C)Nc1nc(NC)c2nc(NC[C@H](C)O)nc(NC)c2n1 [Compound 101, (S)-1-[6-((R)-sec-Butylamino)-4,8-bis-methylamino-pyrimido[5,4-d]pyrimidin-2-ylamino]-propan-2-ol] | 20% | 129% |
| CCCNc1nc(NC)nc2c(N[C@H]3c4ccccc4C[C@@H]3O)nc(NC)nc12 [Compound 78, (1S,2S)-1-(2,6-Bis-methylamino-8-propylamino-pyrimido[5,4-d]-pyrimidin-4-ylamino)-indan-2-ol] | 173% | 180% |
| CCCNc1nc(NCC)c2nc(NC[C@@H](C)O)nc(NCC)c2n1 [Compound 169, (R)-1-(4,8-Bis-ethylamino-6-propylamino-pyrimido[5,4-d]-pyrimidin-2-ylamino)-propan-2-ol] | 113% | 142% |
| CCCNc1nc(NC)c2nc(N[C@@H]3c4ccccc4C[C@H]3O)nc(NC)c2n1 [Compound 129, (1R,2R)-1-(4,8-Bis-methylamino-6-propylamino-pyrimido[5,4-d]-pyrimidin-2-ylamino)-indan-2-ol] | 2% | 68% |
